Key:
SH-SY5Y cells [1] = assay: Reactive oxygen species generation (DCF-DA) after MPP+; format: cell-based, Human; details: 1 mM MPP+ 24 h, then 0.0001-1 μM compound 24 h, FIG. 4
Procedure: (§1) Human neuronal SH-SY5Y cells were cultured in a 1:1 DMEM/F12 medium containing 10% FBS (fetal bovine serum) at 37° C. under 5% carbon dioxide and 95% air. The cultured cells were transferred to a 96-well cell culture plate at a density of 2*10^4 cells/well and cultured for 24 hours. Thereafter, after replacement with serum-restricted medium (1:1 DMEM/F12 medium containing 0.5% FBS), the cells were cultured for 16 hours. Then, the cultured cells were treated with 1 mM MPP+ (1-methyl-4-phenylpyridinium) and cultured for 24 hours, thus inducing mitochondrial dysfunction in the cells. […]
Based on the principle that 2′,7′-dichlorofluorescein diacetate (DCF-DA) is oxidized to fluorescent DCF by reaction with reactive oxygen species, the level of reactive oxygen species generation was measured. […] Then, the fluorescence intensity of DCF at an excitation wavelength of 485 nm and an emission wavelength of 535 nm and the fluorescence intensity of bisbenzimide at an excitation wavelength of 335 nm and an emission wavelength of 460 nm were measured using a fluorescence analyzer to determine the level of reactive oxygen species generation. […]
The concentration of DCF determined from the fluorescence intensity was expressed as a percentage of the normal control.

PON2 (Paraoxonase 2) = assay: Relative expression level of PON2 in liver of DIO mice (Western blot, relative to actin); format: in vivo, C57BL/6J DIO mice; details: 100 mg/kg orally once daily for 6 weeks, 60% fat diet
Procedure: (§2) 14-Week-old C57BL/6J DIO (Diet Induced Obesity) mice (The Jackson Laboratory, USA) were purchased. The normal control group was fed a 10% fat diet for 3 weeks, and the DIO control group was fed a 60% fat diet for 3 weeks. In addition, the Formula III-1 compound-administered group was fed a 60% fat diet for 3 weeks, and then 100 mg/kg of the compound of Formula III-1 was orally administered thereto once daily for 6 weeks.
The mice of the normal control group, the DIO control group and the Formula III-1 compound-administered group were euthanized, and the liver tissues were extracted therefrom, washed with a PBS solution containing PIC (protease inhibitor cocktail), sectioned to a size of 0.2 to 0.5 g, and stored at −196° C. until the experiment. […]
A lysis buffer (CelLytic™ Cell Lysis Reagent, Sigma-Aldrich Corp.) containing a protease inhibitor cocktail was added to the liver tissue which was then minced using a homogenizer, incubated at 0° C. for 30 minutes, and centrifuged at 14,000 rpm for 15 minutes at 4° C. to obtain the supernatant. The protein concentration was quantified using the Bradford method, and then the same amount of protein was separated by electrophoresis on 10% SDS-PAGE and transferred to a polyvinylidene difluoride membrane (PVDF; Pall Corporation, USA) in glycine-methanol buffer. […]

SH-SY5Y cells [2] = assay: Cell death from MPP+ mitochondrial damage, MTT cell viability; format: cell-based, Human; details: 1 mM MPP+ 24 h, then 0.0001-1 μM compound 24 h, FIG. 2
Procedure: as §1
Each of the cultures obtained in Experimental Example 3-1 was treated with 0.2 mg/ml of 3-(4,5-dimethylthiazol-2-yl)-2,5-diphenyl-tetrazolium bromide (MTT; Sigma-Aldrich) and cultured for 4 hours. The MTT formazan precipitate formed by the viable cells was dissolved in 100 μl of 0.04N hydrochloric acid/isopropanol, and the absorbance at 540 nm was measured using an ELISA microplate reader (Molecular Devices).
The absorbances of controls were measured in the same manner as the above-described method, except for using a sample to which DMSO was added (normal control) instead of MMP+ and the compound of Formula III-1 and a sample to which the compound of Formula III-1 was not added (negative control).
The cell viability percentage was calculated from the absorbance.

PON2 mRNA = assay: Relative expression level of PON2 mRNA in liver of DIO mice (real-time PCR); format: in vivo, C57BL/6J DIO mice; details: 100 mg/kg orally once daily for 6 weeks, 60% fat diet, FIG. 1a
Procedure: as §2
The mice of the normal control group, the DIO control group and the Formula III-1 compound-administered group were euthanized, and the liver tissues were extracted therefrom, washed with a PBS solution containing PIC (protease inhibitor cocktail), sectioned to a size of 0.2 to 0.5 g, and stored at −196° C. until the experiment.
The following experiment was conducted using the liver tissue sections from the normal control group, the DIO control group and the Formula III-1 compound-administered group.
The relative expression level of PON2 mRNA was analyzed using real-time PCR. Specifically, trizol (Invitrogen, Carlsbad, Calif., USA) was added to the liver tissue which was then minced using a homogenizer, and total RNA was extracted therefrom. […]

## CCOc1ccc(C2COc3c(ccc4c3CCC(C)(C)O4)C2)c(O)c1 (centres unmarked) [Formula III-1, 2-(8,8-dimethyl-2,3,4,8,9,10-hexahydropyrano[2,3-f]chromen-3-yl)-5-ethoxyphenol]
SH-SY5Y cells [1]
  level of intracellular reactive oxygen species generation (DCF): decreased
PON2 (Paraoxonase 2); FIG. 1
  expression level of PON2 compared with DIO control group: higher
PON2 (Paraoxonase 2); FIG. 1b
  expression level of PON2 compared with normal control group: higher
SH-SY5Y cells [2]
  function of mitochondria damaged by MPP+ (cell viability percentage): restored
PON2 mRNA
  expression level of PON2 mRNA compared with normal control group: higher

— patent publication US20220257557A1, “PHARMACEUTICAL COMPOSITION FOR PREVENTING OR TREATING NEUROLOGICAL DISEASES” (GLACEUM INC., priority 2019, published 2022)
